Columns and labels:
[1] = Seven day oral pharmacokinetics in Syrian hamsters; assay type: in vivo
Protocol: ODBG-P-RVn in 0.1M sodium carbonate/bicarbonate buffer, pH 9.0, was administered to Syrian Hamsters by oral gavage every 12 hours for seven days. ODBG-P-RVn was present as the sodium salt.
FIG. 4A and FIG. 4B depict the seven day oral pharmacokinetics in Syrian hamsters. Syrian hamsters were given vehicle or ODBG-P-RVn by oral gavage every 12 hours for 7 days. Groups of 3 animals received vehicle or drug at doses of 16.9 and 13.2 mg/kg. Animals were weighed daily and monitored for clinical signs.
Analytical Methods: ODBG-P-RVn: Hamster plasma samples (10 μL) containing ODBG-P-RVn and K2EDTA as the anticoagulant were added to polypropylene tubes containing water (100 μL), internal standard solution (10 μL; 1,000 ng/mL of ODE-P-RVn in ACN:DMF (1:1, v/v)), and 10 μL of ACN:DMF (1:1, v/v). The solutions were mixed, then acidified with phosphoric acid, 85% w/v:water (1:19, v/v; 10 μL), mixed, then diluted with 200 μL of IPA, mixed, then diluted with 500 μL of water, and mixed. The samples were extracted with a Sep-Pak® tC18 96-well solid phase extraction plate (25 mg; Waters, Milford, MA). Extraction occurred under positive pressure conditions using nitrogen. Samples were washed serially with 1 mL of water:acetonitrile:formic acid (475:25:0.5, v/v/v) and 0.4 mL of water:acetonitrile:formic acid (350:150:0.5, v/v/v) before being serially eluted with 100 μL and 150 μL of water:{acetonitrile:isopropyl alcohol (1:1, v/v)}:formic acid:ammonium formate:citric acid solution, 2% w/v (15:85:0.1:0.1:0.1, v/v/v/w/v). The citric acid solution was prepared as water:citric acid monohydrate (20:0.4, v/w). After elution, 100 μL of water was added to each sample. The ODBG-P-RVn extracts were analyzed using an Agilent 1200 HPLC system (Agilent, Santa Clara, CA) coupled to an API5500 mass analyzer (SCIEX, Foster City, CA). Analytes were chromatographically separated using a Dacapo DX-C18 MF column (100×2 mm, 2.5 μm; ImtaktUSA, Portland, OR) using a mobile phase system consisting of Mobile Phase A (water:formic acid:[water:ammonium formate:citric acid (25:5:0.5, v/w/w)](1.000:1:1, v/v/v) and Mobile Phase B (acetonitrile:isopropyl alcohol:formic acid:[water:ammonium formate:citric acid (25:5:0.5, v/w/w)](800:200:1:1, v/v/v/v). The total analytical run time was 4.5 minutes. The mobile phase was nebulized using heated nitrogen in a Turbo-V source/interface set to electrospray positive ionization mode. The ionized compounds were detected using multiple reaction monitoring with transitions m/z 788.4>229 (V2043) and 668.4>467.2 (V2041). This method is applicable for measuring ODBG-P-RVn concentrations ranging from 6.25 to 3,000 ng/mL using 10.0 μL of plasma for extraction. The peak areas of ODBG-P-RVn and RVn were acquired using Analyst v. 1.6.2 (SCIEX, Framingham, MA). The calibration curve was obtained by fitting the peak area ratios of the analyte/I.S. and the standard concentrations to a linear equation with 1/x2 weighting, using Analyst. The equation of the calibration curve was then used to interpolate the concentrations of the analyte in the samples using their peak area ratios. The peak areas used for the calculations were not rounded.
The solutions were mixed and centrifuged at 16,000 g for five minutes. […] The GS-441524 extracts were analyzed using an Acquity UPLC system (Waters, Milford, MA) coupled to a G2-S QTof mass analyzer (Waters, Milford, MA). […]

VERO E6 cells [2] = assay: Cell viability assay CellTiter-Glo, Vero E6 cells (Example 7)
Calu-3 cells = assay: Cell viability assay CellTiter-Glo, Calu-3 cells (Example 7); details: Calu-3 cells, CellTiter-Glo
VERO E6 cells [3] = assay: CellTiter-Glo luminescent cell viability assay, Vero E6 (Example 3); assay type: cell-based
PSC-human lung cells = assay: Cell viability assay CellTiter-Glo, PSC-human lung cells (Example 7)
[4] = system: SARS-CoV-2 isolate USA-WA1/2020; assay: SARS-CoV-2 infection in Caco-2 cells, qRT-PCR (Example 7); assay type: cell-based
SARS-CoV-2 = SARS-CoV-2 infection assay in TMPRSS2-Vero cells, nucleocapsid immunofluorescence (Example 6); assay type: cell-based; details: MOI 0.01, 32 hours
Huh7.5 cells = assay: Cytotoxicity in Huh7.5 cells, nuclei count (Example 6); assay type: cell-based, human
VERO E6 cells [5] = assay: Cellular cytotoxicity in Vero E6 cells, MTT assay (Example 2); assay type: cell-based
Protocol: Ten thousand Vero E6 cells were seeded in 100 microliters of culture medium in 96 well plates. The following day serial two-fold dilutions of antiviral compounds or the DMSO-containing vehicle were added to each well. The USA WA-01 strain of SARS CoV-2 was added to each well at a multiplicity of infection of 0.1 thirty minutes later. Cells were incubated for 48 hours, washed twice in PBS and lysed with TRIzol. RNA was extracted using Directzol micro RNA columns. RNA was made into cDNA and assayed for the SARS CoV-2 spike protein and for a housekeeping gene (RPLPO) RNA by qPCR. Data represents the average of duplicate wells. Cellular cytotoxicity was also measured in VERO E6 cells. […] Cytotoxicity (CC50) was assessed using a commercially available MTT assay.

TMPRSS2-Vero cells = assay: Cytotoxicity in TMPRSS2-Vero cells, nuclei count (Example 6); assay type: cell-based
HCoV-229E = assay type: cell-based, human Coronavirus 229E
[6] = Caco-2 cells, MOI 0.01, 48 hours

CCCCCCCCCCCCCCCCCCOC[C@H](COP(=O)(O)OC[C@H]1O[C@@](C#N)(c2ccc3c(N)ncnn23)[C@H](O)[C@@H]1O)OCc1ccccc1 [Compound 15d, 1-O-octadecyl-2-O-benzyl-sn-glyceryl-phospho-RVn]
ODBG-P-RVn plasma levels at 12 hours versus EC90 in all cell lines studied ([1]; day 1 and 7): above the EC90
time in which plasma levels fell by 50% ([1]; hamster, in vivo, po): about 5 hours
tolerability, clinical signs ([1]; oral gavage every 12 hours for seven days): well tolerated
CC50 (VERO E6 cells [2]): 97.9 µM
CC50 (Calu-3 cells): 98.2 µM
CC50 (VERO E6 cells [3]): 46 µM
CC50 (PSC-human lung cells): 61.5 µM
Selectivity ([4]; CC50/EC50, Caco-2 cells): 295
EC50 [4, 6]: 300 nM
EC90 [4, 6]: 330 nM
EC50 (SARS-CoV-2): 205 nM
EC90 (SARS-CoV-2): 432 nM
CC50 (Huh7.5 cells): > 20 µM
CC50 (VERO E6 cells [5]): > 50 µM
CC50 (TMPRSS2-Vero cells): > 20 µM
EC50 (HCoV-229E): 100 nM
EC90 (HCoV-229E): 280 ± 13 nM

Reference: patent US12594292B2, “Antiviral prodrugs, intermediate-and long-acting formulations and methods” (priority 2022, dated 2026)
